pKi: −log10 of the molar value.
Legend:
Human OX1 receptor [1] = target: T1, Human OX1 receptor (Homo sapiens, UniProt O43613); assay: [3H]-radioligand binding assay, human OX1 receptor membranes
T1 sequence (O43613 1-425): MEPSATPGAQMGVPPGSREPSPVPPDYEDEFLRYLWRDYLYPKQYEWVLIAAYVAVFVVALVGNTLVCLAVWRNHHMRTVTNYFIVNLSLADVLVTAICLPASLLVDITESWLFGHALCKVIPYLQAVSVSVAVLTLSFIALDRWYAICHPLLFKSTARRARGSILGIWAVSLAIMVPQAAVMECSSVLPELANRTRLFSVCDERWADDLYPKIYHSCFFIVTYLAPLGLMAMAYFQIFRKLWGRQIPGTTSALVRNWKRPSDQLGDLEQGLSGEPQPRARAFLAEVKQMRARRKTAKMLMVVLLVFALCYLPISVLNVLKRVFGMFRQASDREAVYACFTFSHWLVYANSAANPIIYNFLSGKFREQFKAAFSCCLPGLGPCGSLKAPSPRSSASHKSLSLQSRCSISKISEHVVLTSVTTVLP
Experimental: (§3) Human OX1 or OX2 receptor were cloned into Invitrogen's (ThermoFisher Scientific, UK) Bac-to-Bac Baculovirus Expression System. P0 baculovirus was generated by transfecting SF9 cells with bacmid DNA using Cellfectin® II transfection reagent (ThermoFisher Scientific, UK, Catalog number 10362-100). Following P0 generation P1 virus was then generated ready for large scale infection and membrane preparation. SF21 cells were grown in expression medium ESF921 (Expression Systems, USA, catalog number 96-001-01) supplemented with 10% heat-inactivated FBS and 1% Pen/Strep and were infected at a cell density of 2.5×10^6 cells/mL and a multiplicity of infection of 1.0 for both human OX1R and OX2R. Incubation was carried out at over 48 h in a shaking incubator set at 27° C. The cell culture was then centrifuged at 2,500 rcf for 10 min at 4° C. The pellets were resuspended in cold PBS supplemented with Roche's Complete EDTA-free protease inhibitor cocktail tablets (Roche Applied Sciences, catalog number 05056489001), 1 mM PMSF and 1 mM EDTA. The resuspended cell paste was then centrifuged at 3,273 rcf for 12 min at 4° C. The supernatant was discarded and the pellet frozen at −80° C. The cell pellet from a 4 L culture was resuspended in buffer containing 50 mM HEPES pH 7.5, 150 mM NaCl, 8 Roche EDTA-Free protease inhibitor cocktail tablets and 1 mM PMSF. The suspension was left stirring at rt for 1 h and then homogenised for 90 s at 9,500 rpm using a VDI 25 (VWR, USA) homogeniser. The cells were then lysed using a Microfluidiser processor M-110L Pneumatic (Microfluidics, USA) at 60 PSI and membranes collected by ultracentrifugation at 204.7 k×g for 1 h. The supernatant was discarded and the pellet was resuspended and homogenised in 90 s at 9,500 rpm in 50 mL (25 mL for each 2 L culture) of buffer containing 50 mM Hepes pH 7.5, 150 mM NaCl, 3 Roche EDTA-free protease inhibitor cocktail tablets and 1 mM PMSF. The resulting membranes were then stored at −80° C.
(§4) [^3H]-radioligand binding assay. After thawing, membrane homogenates were re-suspended in the binding buffer (8.5 mM HEPES, pH 7.4, 1.3 mM CaCl2, 1.2 mM MgSO4, 118 mM NaCl, 4.7 mM KCl, 4 mM NaHCO3, 1.2 mM KH2PO4, 11 mM glucose) to a final assay concentration of 6.4 μg (OX1) or 1.4 μg (OX2) protein per well. Saturation isotherms were determined by the addition of various concentrations (0-30 nM) of [^3H]-4-(2,6-difluoro-4-methoxybenzyl)-2-(5,6-dimethoxypyridin-3-yl)-2H-1,2,4-benzothiadiazin-3(4H)-one 1,1-dioxide (Christopher et al, MedChemComm., 2015, 6, 947-955) in a total reaction volume of 250 μL for 90 min at rt. At the end of the incubation, membranes were filtered onto a 96-well GF/B filter pre-incubated with 0.5% polyethylenimine, with a Tomtec cell harvester and washed 5 times with 0.5 mL distilled water. Non-specific binding (NSB) was measured in the presence of 3.33 μM [4-(5-chloro-1,3-benzoxazol-2-yl)-7-methyl-1,4-diazepan-1-yl][5-methyl-2-(2H-1,2,3-triazol-2-yl)phenyl]methanone (Wertz et al, Angew. Chem. Int. Ed., 2011, 50, 11511-11515). Radioactivity on the filter was counted (1 min) on a Microbeta radiometric plate counter (Perkin Elmer) after addition of 50 μL of scintillation fluid (LabLogic: Part #SG-BXX-14). […] IC50 values were derived from the inhibition curve and the equilibrium dissociation constant (Ki) values were calculated using the Cheng-Prusoff equation.

Human OX1 receptor [2] = target: T1, Human OX1 receptor; assay: IPone accumulation assay, CHO cells expressing human OX1 receptor; type: cell-based; conditions: antagonism of orexin A (EC80) induced inositol phosphate turnover, read-out: fpKb average OX1 (converted)
Experimental: (§1) Stable cell lines for the human OX1R and OX2R receptors were generated through the transfection of CHO cells using the transfection reagent Genejuice (Novagen number 70967) and cDNA coding for either the human OX1R or OX2R. Cells were cultured in Sigma Nutrient Mixture F-12 Ham media (catalog number N6658) supplemented with 10% heat-inactivated FBS. Forty-eight hours after transfection, cells were harvested and placed under geneticin selection by culturing in Sigma Nutrient Mixture F-12 Ham media supplemented with 10% heat-inactivated FBS and geneticin (ThermoFisher Catalog number: 10131035). Selection of the final stable clone for each receptor was made on the basis of receptor expression, assay signal to noise and robustness though increasing passage. Selected clones for the human OX1R and OX2R were then frozen down into liquid nitrogen using Cell Freezing Medium-DMSO (Sigma-Aldrich catalog number: C6164).
(§2) IPone accumulation assay. A CHO cell line stably expressing either human OX1 or OX2 receptor was used with the IPone HTRF assay kit (CisBio: Part #62IPAPEJ) to measure receptor activation. The assay was optimised to measure the ability (potency; fpKb) of antagonists to reduce agonist (orexin A)-induced inositol phosphate turnover. Briefly, cells were plated onto half area 96-well white walled plates at a density of 12,500 cells/well. Sixteen hours post-plating cell growth media was replaced with antagonist concentration-response curve diluted in stimulation buffer (supplied with the kit). Cells were incubated in a humidified incubator (37° C.) for 30 min before an EC80 challenge concentration (˜20 nM (OX1) and 40 nM (OX2)) of orexin A (Tocris catalogue number 1455). After 30 min stimulation in a humidified incubator (37° C.) the assay was terminated by the addition of detection mixture as per manufacturer's instructions. The concentration of compound which reduced orexin-A stimulated turnover of inositol phosphates by 50% (IC50) was calculated by fitting to a four parameter sigmoidal dose response curve. The IC50 values were converted to fpKB values using the orexin A pEC50 value estimated on each plate as well as the challenge concentration interpolated from the orexin A control curve.

Human OX2 receptor [3] = target: T2, Human OX2 receptor (Homo sapiens, UniProt O43614); assay: [3H]-radioligand binding assay, human OX2 receptor membranes
T2 sequence (O43614 1-444): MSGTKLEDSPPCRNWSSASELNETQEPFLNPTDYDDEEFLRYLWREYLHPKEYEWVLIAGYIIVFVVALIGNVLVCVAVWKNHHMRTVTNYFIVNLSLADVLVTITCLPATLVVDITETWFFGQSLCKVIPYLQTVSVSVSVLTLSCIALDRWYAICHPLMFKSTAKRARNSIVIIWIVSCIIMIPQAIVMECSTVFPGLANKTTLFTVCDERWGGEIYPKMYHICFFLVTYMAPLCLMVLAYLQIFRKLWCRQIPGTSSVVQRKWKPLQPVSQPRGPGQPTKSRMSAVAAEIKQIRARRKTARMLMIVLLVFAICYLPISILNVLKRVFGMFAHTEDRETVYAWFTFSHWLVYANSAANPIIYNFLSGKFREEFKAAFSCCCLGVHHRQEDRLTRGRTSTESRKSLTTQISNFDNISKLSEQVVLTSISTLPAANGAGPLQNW
Experimental: as §3, §4

Human OX2 receptor [4] = target: T2, Human OX2 receptor; assay: IPone accumulation assay, CHO cells expressing human OX2 receptor; type: cell-based; conditions: antagonism of orexin A (EC80) induced inositol phosphate turnover, read-out: fpKb average OX2
Experimental: as §1
as §2, with “Cells were incubated in a humidified incubator (37° C.) for 30 min before an EC80 challenge concentration (˜20 nM (OX1) and 40 nM (OX2)) of orexin A (Tocris catalogue number 1455).” left out

Structure (SMILES): COCc1cccc(-n2nccn2)c1C(=O)N[C@H]1CCC[C@@H]1COc1ccc(F)cc1 [Example 17, N-[(1S,2S)-2-[(4-fluorophenoxy)methyl]cyclopentyl]-2-(methoxymethyl)-6-(triazol-2-yl)benzamide]
- pKi (Human OX1 receptor [1]): 7.50
- Kb (Human OX1 receptor [2]): 251 nM
- pKi (Human OX2 receptor [3]): < 5.90
- Kb (Human OX2 receptor [4]): > 631 nM

Structure (SMILES): COCc1ccc(-n2nccn2)c(C(=O)N[C@H]2CCC[C@@H]2COc2ccc(F)cc2)n1 [Example 18, N-[(1S,2S)-2-[(4-fluorophenoxy)methyl]cyclopentyl]-6-(methoxymethyl)-3-(triazol-2-yl)pyridine-2-carboxamide]
- pKi (Human OX1 receptor [1]): 8.10
- Kb (Human OX1 receptor [2]): 63.1 nM
- pKi (Human OX2 receptor [3]): < 5.30
- Kb (Human OX2 receptor [4]): > 1260 nM

Structure (SMILES): COCc1ccc(-n2nccn2)c(C(=O)N[C@H]2CCC[C@@H]2COc2ccc(Cl)cc2)n1 [Example 19, N-[(1S,2S)-2-[(4-chlorophenoxy)methyl]cyclopentyl]-6-(methoxymethyl)-3-(triazol-2-yl)pyridine-2-carboxamide]
- pKi (Human OX1 receptor [1]): 8.10
- Kb (Human OX1 receptor [2]): 79.4 nM
- pKi (Human OX2 receptor [3]): < 5.30
- Kb (Human OX2 receptor [4]): > 1260 nM

Structure (SMILES): COc1ccc(-n2nccn2)c(C(=O)N[C@H]2CCC[C@@H]2COc2ccc(F)cc2)n1 [Example 20, N-[(1S,2S)-2-[(4-fluorophenoxy)methyl]cyclopentyl]-6-methoxy-3-(triazol-2-yl)pyridine-2-carboxamide]
- pKi (Human OX1 receptor [1]): 8.10
- Kb (Human OX1 receptor [2]): 100 nM
- pKi (Human OX2 receptor [3]): < 5.30
- Kb (Human OX2 receptor [4]): > 1260 nM

Structure (SMILES): COc1ccc(-n2nccn2)c(C(=O)N[C@H]2CCC[C@@H]2COc2ccc(Cl)cc2)n1 [Example 21, N-[(1S,2S)-2-[(4-chlorophenoxy)methyl]cyclopentyl]-6-methoxy-3-(triazol-2-yl)pyridine-2-carboxamide]
- pKi (Human OX1 receptor [1]): 7.90
- Kb (Human OX1 receptor [2]): 794 nM
- pKi (Human OX2 receptor [3]): < 5.30
- Kb (Human OX2 receptor [4]): > 631 nM

Structure (SMILES): Cc1ccc(-n2nccn2)c(C(=O)N[C@H]2CCC[C@@H]2COc2ccc(F)cc2)n1 [Example 22, N-[(1S,2S)-2-[(4-fluorophenoxy)methyl]cyclopentyl]-6-methyl-3-(triazol-2-yl)pyridine-2-carboxamide]
- pKi (Human OX1 receptor [1]): 8.40
- Kb (Human OX1 receptor [2]): 25.1 nM
- pKi (Human OX2 receptor [3]): < 5.50
- Kb (Human OX2 receptor [4]): > 1260 nM

Structure (SMILES): Cc1ccc(-n2nccn2)c(C(=O)N[C@H]2CCC[C@@H]2COc2ccc(Cl)cc2)n1 [Example 23, N-[(1S,2S)-2-[(4-chlorophenoxy)methyl]cyclopentyl]-6-methyl-3-(triazol-2-yl)pyridine-2-carboxamide]
- pKi (Human OX1 receptor [1]): 8.90
- Kb (Human OX1 receptor [2]): 39.8 nM
- pKi (Human OX2 receptor [3]): < 5.40
- Kb (Human OX2 receptor [4]): > 1260 nM

Structure (SMILES): Cc1ccc(-c2ncccn2)c(C(=O)N[C@H]2CCC[C@@H]2COc2ccc(F)cc2)n1 [Example 24, N-[(1S,2S)-2-[(4-fluorophenoxy)methyl]cyclopentyl]-6-methyl-3-pyrimidin-2-yl-pyridine-2-carboxamide]
- pKi (Human OX1 receptor [1]): 7.80
- Kb (Human OX1 receptor [2]): 15.8 nM
- pKi (Human OX2 receptor [3]): < 5.40
- Kb (Human OX2 receptor [4]): > 631 nM

Structure (SMILES): O=C(N[C@H]1CCC[C@@H]1COc1ccc(F)cc1)c1ncccc1-c1ncccn1 [Example 25, N-[(1S,2S)-2-[(4-fluorophenoxy)methyl]cyclopentyl]-3-pyrimidin-2-yl-pyridine-2-carboxamide]
- pKi (Human OX1 receptor [1]): 8.10
- Kb (Human OX1 receptor [2]): 79.4 nM
- pKi (Human OX2 receptor [3]): < 5.50
- Kb (Human OX2 receptor [4]): > 631 nM

Structure (SMILES): O=C(N[C@H]1CCC[C@@H]1COc1ccc(F)cc1F)c1ncccc1-c1ncccn1 [Example 26, N-[(1S,2S)-2-[(2,4-difluorophenoxy)methyl]cyclopentyl]-3-pyrimidin-2-yl-pyridine-2-carboxamide]
- pKi (Human OX1 receptor [1]): 7.90
- Kb (Human OX1 receptor [2]): 251 nM
- pKi (Human OX2 receptor [3]): < 5.50
- Kb (Human OX2 receptor [4]): > 794 nM

Structure (SMILES): O=C(N[C@H]1CCC[C@@H]1COc1ccc(Cl)cc1)c1ncccc1-c1ncccn1 [Example 27, N-[(1S,2S)-2-[(4-chlorophenoxy)methyl]cyclopentyl]-3-pyrimidin-2-yl-pyridine-2-carboxamide]
- pKi (Human OX1 receptor [1]): 7.70
- Kb (Human OX1 receptor [2]): 316 nM
- pKi (Human OX2 receptor [3]): < 5.30
- Kb (Human OX2 receptor [4]): > 2510 nM

Structure (SMILES): O=C(N[C@H]1CCC[C@@H]1COc1ccc(F)c(F)c1)c1ncccc1-c1ncccn1 [Example 28, N-[(1S,2S)-2-[(3,4-difluorophenoxy)methyl]cyclopentyl]-3-pyrimidin-2-yl-pyridine-2-carboxamide]
- pKi (Human OX1 receptor [1]): 7.60
- Kb (Human OX1 receptor [2]): 100 nM
- pKi (Human OX2 receptor [3]): < 5.90
- Kb (Human OX2 receptor [4]): > 2510 nM

Structure (SMILES): COc1nccc(-n2nccn2)c1C(=O)N[C@H]1CCC[C@@H]1COc1ccc(F)cc1 [Example 29, N-[(1S,2S)-2-[(4-fluorophenoxy)methyl]cyclopentyl]-2-methoxy-4-(triazol-2-yl)pyridine-3-carboxamide]
- pKi (Human OX1 receptor [1]): 8.20
- Kb (Human OX1 receptor [2]): 39.8 nM
- pKi (Human OX2 receptor [3]): 6.10
- Kb (Human OX2 receptor [4]): > 631 nM

Structure (SMILES): COc1nccc(-c2ncccn2)c1C(=O)N[C@H]1CCC[C@@H]1COc1ccc(F)cc1 [Example 30, N-[(1S,2S)-2-[(4-fluorophenoxy)methyl]cyclopentyl]-2-methoxy-4-pyrimidin-2-yl-pyridine-3-carboxamide]
- pKi (Human OX1 receptor [1]): 8.10
- Kb (Human OX1 receptor [2]): 25.1 nM
- pKi (Human OX2 receptor [3]): < 5.90
- Kb (Human OX2 receptor [4]): > 631 nM

Structure (SMILES): COc1cccc(-c2ncccn2)c1C(=O)N[C@H]1CCC[C@@H]1COc1ccc(F)cn1 [Example 32, N-[(1S,2S)-2-[(5-fluoro-2-pyridyl)oxymethyl]cyclopentyl]-2-methoxy-6-pyrimidin-2-yl-benzamide]
- pKi (Human OX1 receptor [1]): 7.70
- Kb (Human OX1 receptor [2]): 50.1 nM
- pKi (Human OX2 receptor [3]): 5.70
- Kb (Human OX2 receptor [4]): > 2510 nM

— patent US12331029B2, “Orexin 1 receptor antagonists” (NXERA PHARMA UK LIMITED, priority 2018, dated 2025)
